According to the NIST ThermoML archive (doi:10.1021/acs.jced.6b00577):

Settings: Liquid, Frequency=8 MHz, Pulse-echo method

CCCC [butane]
Settings | speed of sound [m/s]
320 K, 1101.2 kPa | 790.66
320 K, 2101.9 kPa | 805.08
320 K, 2104.1 kPa | 805.16
320 K, 3102.5 kPa | 818.93
320 K, 3104.8 kPa | 819.01
320 K, 4103.2 kPa | 832.27
320 K, 4105.5 kPa | 832.35
320 K, 5103.8 kPa | 845.16
320 K, 5106.1 kPa | 845.24
320 K, 6106.8 kPa | 857.71
320 K, 7107.5 kPa | 869.8
320 K, 8108.2 kPa | 881.54
320 K, 9108.9 kPa | 892.95
320 K, 10109 kPa | 904.04
320 K, 10110 kPa | 904.07
320 K, 12611 kPa | 930.65
320 K, 15113 kPa | 955.74
320 K, 17615 kPa | 979.54
320 K, 20116 kPa | 1002.2
320 K, 25120 kPa | 1044.7
320 K, 30123 kPa | 1084
320 K, 35127 kPa | 1120.6
320 K, 40130 kPa | 1155
320 K, 45134 kPa | 1187.5
320 K, 50137 kPa | 1218.4
320 K, 50138 kPa | 1218.4
320 K, 60144 kPa | 1276.1
320 K, 70152 kPa | 1329.2
320 K, 80158 kPa | 1378.5
320 K, 90166 kPa | 1424.7
320 K, 100173 kPa | 1468.2
340 K, 1100.4 kPa | 678.12
340 K, 2101.1 kPa | 696.22
340 K, 2103.7 kPa | 696.27
340 K, 3101.7 kPa | 713.3
340 K, 3104.3 kPa | 713.36
340 K, 4102.4 kPa | 729.53
340 K, 4105 kPa | 729.59
340 K, 5102.9 kPa | 745.01
340 K, 5105.6 kPa | 745.07
340 K, 6106.2 kPa | 759.88
340 K, 7106.8 kPa | 774.1
340 K, 8107.5 kPa | 787.79
340 K, 9108.1 kPa | 801.01
340 K, 10106 kPa | 813.73
340 K, 10108 kPa | 813.77
340 K, 12610 kPa | 844.03
340 K, 15112 kPa | 872.22
340 K, 17614 kPa | 898.7
340 K, 20116 kPa | 923.7
340 K, 25119 kPa | 970.09
340 K, 30123 kPa | 1012.5
340 K, 35126 kPa | 1051.8
340 K, 40130 kPa | 1088.5
340 K, 45133 kPa | 1122.9
340 K, 50136 kPa | 1155.5
340 K, 60145 kPa | 1216
340 K, 70152 kPa | 1271.4
340 K, 80159 kPa | 1322.7
340 K, 90166 kPa | 1370.5
340 K, 100173 kPa | 1415.5
360 K, 2100.8 kPa | 582.29
360 K, 2103.9 kPa | 582.37
360 K, 3101.4 kPa | 604.48
360 K, 3104.6 kPa | 604.56
360 K, 4102 kPa | 625
360 K, 4102.1 kPa | 625
360 K, 4105.4 kPa | 625.09
360 K, 5102.6 kPa | 644.17
360 K, 5103 kPa | 644.18
360 K, 5106.1 kPa | 644.25
360 K, 6106.9 kPa | 662.28
360 K, 7107.6 kPa | 679.33
360 K, 8108.4 kPa | 695.54
360 K, 9109.1 kPa | 711.01
360 K, 10110 kPa | 725.83
360 K, 12612 kPa | 760.45
360 K, 15113 kPa | 792.21
360 K, 17615 kPa | 821.66
360 K, 20117 kPa | 849.23
360 K, 25120 kPa | 899.75
360 K, 30124 kPa | 945.47
360 K, 35128 kPa | 987.41
360 K, 40131 kPa | 1026.3
360 K, 45135 kPa | 1062.7
360 K, 50138 kPa | 1096.9
360 K, 60145 kPa | 1160.2
360 K, 70152 kPa | 1217.7
360 K, 80159 kPa | 1270.8
360 K, 90166 kPa | 1320.2
360 K, 100173 kPa | 1366.5
380 K, 2103.2 kPa | 456.13
380 K, 3104.2 kPa | 488.08
380 K, 4105 kPa | 515.93
380 K, 5105.8 kPa | 540.88
380 K, 6106.7 kPa | 563.62
380 K, 7107.5 kPa | 584.62
380 K, 8108.3 kPa | 604.2
380 K, 9109.1 kPa | 622.6
380 K, 10110 kPa | 639.98
380 K, 12611 kPa | 679.85
380 K, 15113 kPa | 715.71
380 K, 17614 kPa | 748.49
380 K, 20116 kPa | 778.8
380 K, 25120 kPa | 833.69
380 K, 30123 kPa | 882.73
380 K, 35127 kPa | 927.32
380 K, 40132 kPa | 968.4
380 K, 45135 kPa | 1006.6
380 K, 50139 kPa | 1042.4
380 K, 60146 kPa | 1108.3
380 K, 70153 kPa | 1167.9
380 K, 80160 kPa | 1222.7
380 K, 90167 kPa | 1273.5
380 K, 100174 kPa | 1321.1
400 K, 2704.8 kPa | 329.55
400 K, 3105.1 kPa | 351.68
400 K, 4105.8 kPa | 396.18
400 K, 5106.4 kPa | 431.84
400 K, 6107 kPa | 462.27
400 K, 7107.7 kPa | 489.16
400 K, 8108.4 kPa | 513.44
400 K, 9109.4 kPa | 535.71
400 K, 10110 kPa | 556.36
400 K, 12612 kPa | 602.56
400 K, 15114 kPa | 643.08
400 K, 17616 kPa | 679.47
400 K, 20118 kPa | 712.7
400 K, 25121 kPa | 772.06
400 K, 30125 kPa | 824.41
400 K, 35128 kPa | 871.59
400 K, 40132 kPa | 914.76
400 K, 45135 kPa | 954.73
400 K, 50138 kPa | 992.04
400 K, 60145 kPa | 1060.3
400 K, 70152 kPa | 1121.8
400 K, 80159 kPa | 1178.1
400 K, 90166 kPa | 1230.3
400 K, 100173 kPa | 1278.9
420 K, 4104.4 kPa | 244.51
420 K, 4455.2 kPa | 271.52
420 K, 4605 kPa | 281.85
420 K, 4955.6 kPa | 302.47
420 K, 5105.1 kPa | 310.48
420 K, 5456.1 kPa | 327.76
420 K, 5605.7 kPa | 334.63
420 K, 6105.8 kPa | 355.8
420 K, 6606.5 kPa | 374.83
420 K, 7106.5 kPa | 392.2
420 K, 8107.2 kPa | 423.27
420 K, 9108 kPa | 450.7
420 K, 10109 kPa | 475.45
420 K, 12611 kPa | 529.12
420 K, 15112 kPa | 574.77
420 K, 17615 kPa | 614.98
420 K, 20117 kPa | 651.2
420 K, 25120 kPa | 714.99
420 K, 30124 kPa | 770.53
420 K, 35127 kPa | 820.17
420 K, 40131 kPa | 865.3
420 K, 45134 kPa | 906.89
420 K, 50138 kPa | 945.57
420 K, 55142 kPa | 981.83
420 K, 60145 kPa | 1016
420 K, 70152 kPa | 1079.3
420 K, 80159 kPa | 1137
420 K, 90166 kPa | 1190.3
420 K, 100173 kPa | 1240
430 K, 5105.6 kPa | 236.47
430 K, 5355.3 kPa | 258.17
430 K, 5606 kPa | 273.03
430 K, 5855.6 kPa | 287.25
430 K, 6106.3 kPa | 300.07
430 K, 6356.3 kPa | 311.9
430 K, 6606.6 kPa | 323.01
430 K, 7106.8 kPa | 343.37
430 K, 7106.9 kPa | 343.37
430 K, 7607.2 kPa | 361.85
430 K, 8107.5 kPa | 378.83
430 K, 8607.8 kPa | 394.6
430 K, 9108.1 kPa | 409.36
430 K, 9608.5 kPa | 423.28
430 K, 10109 kPa | 436.47
430 K, 11110 kPa | 461
430 K, 12110 kPa | 483.55
430 K, 13111 kPa | 504.47
430 K, 14112 kPa | 524.06
430 K, 15113 kPa | 542.49
430 K, 17614 kPa | 584.59
430 K, 20116 kPa | 622.27
